Experimental data from ChEMBL document CHEMBL5465560, “Selectivity Literature for EUbOPEN Chemogenomic Library” (2024).
One block for each molecule: values may come before it.

Tests used:
[1] = biological target: Tyrosine-protein kinase Fyn (Homo sapiens) (UniProt P06241); settings: at 10 µM
[2] = biological target: Tyrosine-protein kinase ABL2 (Homo sapiens, UniProt P42684); settings: at 10 µM
[3] = biological target: Homeodomain-interacting protein kinase 3 (Homo sapiens, UniProt Q9H422); assay: Selectivity interaction (Enzymatic assay (Eurofins)) EUB0001049a HIPK3
[4] = biological target: Macrophage-stimulating protein receptor (Homo sapiens, UniProt Q04912); assay: Selectivity interaction (KinomeScan (DiscoverX)) EUB0001049a MST1R; settings: at 1 µM
[5] = biological target: Receptor tyrosine-protein kinase erbB-2 (Homo sapiens, UniProt P04626); assay: Selectivity interaction (Kinase panel (Invitrogen)) EUB0000639a ERBB2; settings: at 200 nM
[6] = biological target: Rho-associated protein kinase 2 (Homo sapiens, UniProt O75116); assay: Selectivity interaction (Kinase panel (literature)) EUB0001199aCl ROCK2; settings: at 1 µM
[7] = biological target: T1, Serine/threonine-protein kinase ULK2 (Homo sapiens) (UniProt Q8IYT8); assay: Selectivity interaction (KinomeScan (DiscoverX)) EUB0000695a ULK2; settings: at 100 nM
T1 sequence (whole entry): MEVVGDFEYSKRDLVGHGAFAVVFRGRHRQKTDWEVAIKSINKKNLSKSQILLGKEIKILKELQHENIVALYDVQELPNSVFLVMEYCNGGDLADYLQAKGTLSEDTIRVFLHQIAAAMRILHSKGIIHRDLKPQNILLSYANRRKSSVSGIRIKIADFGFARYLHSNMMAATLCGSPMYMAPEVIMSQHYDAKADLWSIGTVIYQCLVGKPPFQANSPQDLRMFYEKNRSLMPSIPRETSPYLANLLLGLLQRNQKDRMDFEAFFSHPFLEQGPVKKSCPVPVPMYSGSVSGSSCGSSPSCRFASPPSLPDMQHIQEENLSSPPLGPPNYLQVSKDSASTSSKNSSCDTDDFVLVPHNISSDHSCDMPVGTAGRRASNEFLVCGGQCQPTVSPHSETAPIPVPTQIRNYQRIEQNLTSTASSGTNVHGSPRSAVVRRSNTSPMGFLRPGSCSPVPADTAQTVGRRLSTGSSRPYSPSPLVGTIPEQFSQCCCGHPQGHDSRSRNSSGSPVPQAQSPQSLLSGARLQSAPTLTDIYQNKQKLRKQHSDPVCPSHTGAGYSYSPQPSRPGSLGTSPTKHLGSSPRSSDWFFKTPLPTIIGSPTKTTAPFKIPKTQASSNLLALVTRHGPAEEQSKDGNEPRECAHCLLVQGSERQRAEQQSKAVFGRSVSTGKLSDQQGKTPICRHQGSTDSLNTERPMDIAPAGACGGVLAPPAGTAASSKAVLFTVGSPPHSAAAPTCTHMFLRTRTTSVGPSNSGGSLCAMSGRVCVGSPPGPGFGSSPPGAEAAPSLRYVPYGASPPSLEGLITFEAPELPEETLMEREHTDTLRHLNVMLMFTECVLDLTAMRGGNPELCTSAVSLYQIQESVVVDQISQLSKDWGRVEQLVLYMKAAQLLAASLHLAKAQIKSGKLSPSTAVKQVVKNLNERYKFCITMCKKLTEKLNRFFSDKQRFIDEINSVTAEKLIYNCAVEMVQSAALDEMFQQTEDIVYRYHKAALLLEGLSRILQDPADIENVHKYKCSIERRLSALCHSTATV

[8] = biological target: Serine/threonine-protein kinase PAK 4 (Homo sapiens, UniProt O96013); settings: at 10 µM
[9] = biological target: T2, Bone morphogenetic protein receptor type-2 (Homo sapiens) (UniProt Q13873); assay: Selectivity interaction (KinomeScan (DiscoverX)) EUB0000045b BMPR2
T2 sequence (whole entry): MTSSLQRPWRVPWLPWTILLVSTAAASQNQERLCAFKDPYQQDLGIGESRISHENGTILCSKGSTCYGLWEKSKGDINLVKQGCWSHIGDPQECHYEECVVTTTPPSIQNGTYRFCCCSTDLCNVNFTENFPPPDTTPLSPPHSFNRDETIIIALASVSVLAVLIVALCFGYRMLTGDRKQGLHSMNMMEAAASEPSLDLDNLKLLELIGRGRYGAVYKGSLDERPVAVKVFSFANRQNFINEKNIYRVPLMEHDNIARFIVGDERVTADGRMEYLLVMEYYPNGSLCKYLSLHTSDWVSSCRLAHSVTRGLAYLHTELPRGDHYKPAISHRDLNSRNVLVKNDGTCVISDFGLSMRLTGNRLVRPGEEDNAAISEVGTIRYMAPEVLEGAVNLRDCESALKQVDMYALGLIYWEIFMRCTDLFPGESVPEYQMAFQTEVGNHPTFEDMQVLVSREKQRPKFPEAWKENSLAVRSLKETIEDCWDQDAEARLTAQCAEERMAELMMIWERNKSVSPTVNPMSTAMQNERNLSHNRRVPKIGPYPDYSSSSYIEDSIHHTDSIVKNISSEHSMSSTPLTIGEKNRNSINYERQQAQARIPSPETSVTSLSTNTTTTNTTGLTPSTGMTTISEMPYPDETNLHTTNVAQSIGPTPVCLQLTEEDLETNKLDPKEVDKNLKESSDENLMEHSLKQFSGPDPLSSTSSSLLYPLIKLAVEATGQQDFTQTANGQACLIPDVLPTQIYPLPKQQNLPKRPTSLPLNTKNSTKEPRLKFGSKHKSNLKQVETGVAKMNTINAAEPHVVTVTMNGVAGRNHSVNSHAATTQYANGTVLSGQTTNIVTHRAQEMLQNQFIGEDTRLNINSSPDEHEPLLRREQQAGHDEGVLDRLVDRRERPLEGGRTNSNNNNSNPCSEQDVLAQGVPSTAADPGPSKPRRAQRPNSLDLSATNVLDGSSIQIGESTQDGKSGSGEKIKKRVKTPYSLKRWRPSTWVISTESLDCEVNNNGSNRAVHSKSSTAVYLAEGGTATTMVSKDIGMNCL

[10] = biological target: Serine/threonine-protein kinase SBK1 (Homo sapiens) (UniProt Q52WX2); assay: Selectivity interaction (KinomeScan (DiscoverX)) EUB0000655a SBK1; settings: at 10 µM
[11] = biological target: Vascular endothelial growth factor receptor 2 (Homo sapiens, UniProt P35968); assay: Selectivity interaction (KinomeScan (DiscoverX)) EUB0000655a KDR; settings: at 10 µM
Sequence of Vascular endothelial growth factor receptor 2 (P35968 whole entry): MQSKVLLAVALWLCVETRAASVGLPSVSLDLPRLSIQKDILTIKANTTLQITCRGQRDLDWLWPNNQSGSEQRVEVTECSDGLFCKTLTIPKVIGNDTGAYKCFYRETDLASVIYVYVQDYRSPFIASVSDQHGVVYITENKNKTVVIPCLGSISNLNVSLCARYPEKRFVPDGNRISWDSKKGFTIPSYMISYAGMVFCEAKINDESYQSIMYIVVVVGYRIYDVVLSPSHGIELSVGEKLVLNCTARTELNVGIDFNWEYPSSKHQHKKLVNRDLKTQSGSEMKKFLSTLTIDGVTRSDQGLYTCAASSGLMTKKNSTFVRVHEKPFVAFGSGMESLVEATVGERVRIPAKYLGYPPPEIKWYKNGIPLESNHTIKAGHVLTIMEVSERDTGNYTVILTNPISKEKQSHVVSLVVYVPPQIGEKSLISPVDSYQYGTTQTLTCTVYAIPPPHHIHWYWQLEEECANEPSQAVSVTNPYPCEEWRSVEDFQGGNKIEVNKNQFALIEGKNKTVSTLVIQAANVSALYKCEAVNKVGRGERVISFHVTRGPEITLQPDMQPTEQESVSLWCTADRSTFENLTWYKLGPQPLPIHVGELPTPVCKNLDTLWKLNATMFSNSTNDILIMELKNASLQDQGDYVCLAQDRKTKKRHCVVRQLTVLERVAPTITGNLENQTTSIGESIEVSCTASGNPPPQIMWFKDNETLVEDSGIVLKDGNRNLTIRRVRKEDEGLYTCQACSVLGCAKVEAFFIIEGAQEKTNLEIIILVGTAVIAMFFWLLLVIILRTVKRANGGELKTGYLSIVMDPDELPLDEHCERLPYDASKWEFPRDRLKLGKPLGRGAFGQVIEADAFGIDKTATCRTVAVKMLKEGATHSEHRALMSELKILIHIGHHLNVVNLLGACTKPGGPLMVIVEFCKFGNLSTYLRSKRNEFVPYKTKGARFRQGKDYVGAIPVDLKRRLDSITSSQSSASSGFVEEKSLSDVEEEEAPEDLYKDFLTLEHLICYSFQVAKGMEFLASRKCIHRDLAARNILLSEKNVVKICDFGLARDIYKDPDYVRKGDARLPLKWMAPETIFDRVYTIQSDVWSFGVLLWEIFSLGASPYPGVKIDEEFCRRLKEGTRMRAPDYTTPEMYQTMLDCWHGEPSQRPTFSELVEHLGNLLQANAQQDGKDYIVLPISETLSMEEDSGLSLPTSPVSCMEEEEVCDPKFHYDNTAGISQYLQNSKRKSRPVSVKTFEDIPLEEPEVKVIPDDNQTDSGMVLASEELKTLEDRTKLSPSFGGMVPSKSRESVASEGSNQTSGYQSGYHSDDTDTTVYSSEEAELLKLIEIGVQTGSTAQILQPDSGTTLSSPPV

Sequence of Homeodomain-interacting protein kinase 3 (Q9H422 whole entry): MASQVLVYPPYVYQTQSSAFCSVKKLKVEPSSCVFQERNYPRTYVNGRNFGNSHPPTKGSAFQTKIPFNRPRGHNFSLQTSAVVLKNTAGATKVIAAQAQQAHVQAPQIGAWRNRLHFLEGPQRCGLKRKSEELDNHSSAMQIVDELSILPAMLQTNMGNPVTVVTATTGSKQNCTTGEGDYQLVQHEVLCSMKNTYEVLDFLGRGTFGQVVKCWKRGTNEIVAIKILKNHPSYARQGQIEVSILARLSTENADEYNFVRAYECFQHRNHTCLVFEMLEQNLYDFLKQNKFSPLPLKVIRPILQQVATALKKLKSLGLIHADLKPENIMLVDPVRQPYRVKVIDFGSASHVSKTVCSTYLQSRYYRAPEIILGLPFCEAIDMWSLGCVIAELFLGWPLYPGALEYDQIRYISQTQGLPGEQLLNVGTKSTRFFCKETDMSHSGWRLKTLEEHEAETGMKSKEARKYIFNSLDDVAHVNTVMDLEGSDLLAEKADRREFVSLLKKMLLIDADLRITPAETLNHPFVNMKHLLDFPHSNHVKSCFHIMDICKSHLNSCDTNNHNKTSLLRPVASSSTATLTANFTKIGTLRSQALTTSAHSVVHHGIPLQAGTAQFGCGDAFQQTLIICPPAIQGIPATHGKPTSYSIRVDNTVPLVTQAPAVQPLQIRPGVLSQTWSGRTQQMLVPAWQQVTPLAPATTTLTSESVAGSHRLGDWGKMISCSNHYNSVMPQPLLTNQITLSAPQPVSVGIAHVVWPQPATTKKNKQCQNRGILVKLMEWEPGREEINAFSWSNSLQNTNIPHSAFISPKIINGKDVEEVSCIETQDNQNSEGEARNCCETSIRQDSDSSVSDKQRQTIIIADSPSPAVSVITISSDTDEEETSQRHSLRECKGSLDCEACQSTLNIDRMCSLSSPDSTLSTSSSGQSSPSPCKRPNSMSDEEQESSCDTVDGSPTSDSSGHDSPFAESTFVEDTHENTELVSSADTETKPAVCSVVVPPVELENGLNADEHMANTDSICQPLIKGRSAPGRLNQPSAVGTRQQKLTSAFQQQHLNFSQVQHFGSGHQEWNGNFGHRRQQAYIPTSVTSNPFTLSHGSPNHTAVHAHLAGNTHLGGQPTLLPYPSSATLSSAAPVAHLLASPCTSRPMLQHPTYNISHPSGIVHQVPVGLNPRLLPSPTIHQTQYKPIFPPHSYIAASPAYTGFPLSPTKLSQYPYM
Sequence of Serine/threonine-protein kinase SBK1 (Homo sapiens) (Q52WX2 whole entry): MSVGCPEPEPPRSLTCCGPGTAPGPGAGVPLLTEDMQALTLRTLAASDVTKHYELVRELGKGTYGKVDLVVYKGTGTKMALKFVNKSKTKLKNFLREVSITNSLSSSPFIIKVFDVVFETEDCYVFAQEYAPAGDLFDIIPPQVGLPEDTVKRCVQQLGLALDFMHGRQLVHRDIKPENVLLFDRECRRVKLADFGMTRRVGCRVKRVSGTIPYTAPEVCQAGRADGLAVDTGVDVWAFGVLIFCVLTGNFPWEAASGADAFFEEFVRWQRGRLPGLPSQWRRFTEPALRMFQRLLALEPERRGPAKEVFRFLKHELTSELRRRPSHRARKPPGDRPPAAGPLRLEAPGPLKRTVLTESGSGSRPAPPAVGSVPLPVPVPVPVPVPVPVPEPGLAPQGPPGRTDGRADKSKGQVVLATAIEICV
Sequence of Macrophage-stimulating protein receptor (Q04912 25-304 limits assumed): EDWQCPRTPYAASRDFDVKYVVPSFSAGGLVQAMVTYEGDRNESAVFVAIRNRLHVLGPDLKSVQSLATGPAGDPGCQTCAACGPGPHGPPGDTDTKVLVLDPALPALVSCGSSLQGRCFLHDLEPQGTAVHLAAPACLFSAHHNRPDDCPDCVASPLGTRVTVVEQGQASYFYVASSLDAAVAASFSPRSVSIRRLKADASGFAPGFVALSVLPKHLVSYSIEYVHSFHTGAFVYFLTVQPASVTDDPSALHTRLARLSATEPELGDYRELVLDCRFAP
Sequence of Macrophage-stimulating protein receptor (Q04912 310-1400 limits assumed): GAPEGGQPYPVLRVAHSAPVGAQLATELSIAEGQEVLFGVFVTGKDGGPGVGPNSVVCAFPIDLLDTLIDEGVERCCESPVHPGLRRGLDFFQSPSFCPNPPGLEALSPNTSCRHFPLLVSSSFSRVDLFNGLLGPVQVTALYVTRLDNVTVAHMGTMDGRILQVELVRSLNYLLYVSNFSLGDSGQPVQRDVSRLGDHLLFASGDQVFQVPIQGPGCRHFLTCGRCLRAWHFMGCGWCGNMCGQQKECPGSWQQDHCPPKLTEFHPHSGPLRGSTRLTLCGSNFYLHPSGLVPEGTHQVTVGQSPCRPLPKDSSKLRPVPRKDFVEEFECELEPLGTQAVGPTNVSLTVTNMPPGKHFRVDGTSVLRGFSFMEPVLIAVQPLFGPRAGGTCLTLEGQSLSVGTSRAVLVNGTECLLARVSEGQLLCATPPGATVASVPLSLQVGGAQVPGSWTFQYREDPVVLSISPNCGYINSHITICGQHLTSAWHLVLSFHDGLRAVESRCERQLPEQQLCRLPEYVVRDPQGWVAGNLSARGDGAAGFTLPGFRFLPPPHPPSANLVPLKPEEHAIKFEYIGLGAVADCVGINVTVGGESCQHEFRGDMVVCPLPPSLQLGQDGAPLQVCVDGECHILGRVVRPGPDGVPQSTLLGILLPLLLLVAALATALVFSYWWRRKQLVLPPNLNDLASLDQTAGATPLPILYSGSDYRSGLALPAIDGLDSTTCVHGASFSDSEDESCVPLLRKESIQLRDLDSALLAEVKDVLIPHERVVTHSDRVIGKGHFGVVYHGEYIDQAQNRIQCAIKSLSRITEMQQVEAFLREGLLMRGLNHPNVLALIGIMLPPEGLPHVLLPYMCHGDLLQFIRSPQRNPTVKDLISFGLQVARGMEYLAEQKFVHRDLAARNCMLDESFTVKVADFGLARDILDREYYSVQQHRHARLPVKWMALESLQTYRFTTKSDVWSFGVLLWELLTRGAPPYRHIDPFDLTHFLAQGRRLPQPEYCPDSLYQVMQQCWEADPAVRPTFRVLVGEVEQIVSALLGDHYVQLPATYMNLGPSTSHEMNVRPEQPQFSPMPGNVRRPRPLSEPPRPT
Sequence of Tyrosine-protein kinase Fyn (Homo sapiens) (P06241 2-537 limits assumed): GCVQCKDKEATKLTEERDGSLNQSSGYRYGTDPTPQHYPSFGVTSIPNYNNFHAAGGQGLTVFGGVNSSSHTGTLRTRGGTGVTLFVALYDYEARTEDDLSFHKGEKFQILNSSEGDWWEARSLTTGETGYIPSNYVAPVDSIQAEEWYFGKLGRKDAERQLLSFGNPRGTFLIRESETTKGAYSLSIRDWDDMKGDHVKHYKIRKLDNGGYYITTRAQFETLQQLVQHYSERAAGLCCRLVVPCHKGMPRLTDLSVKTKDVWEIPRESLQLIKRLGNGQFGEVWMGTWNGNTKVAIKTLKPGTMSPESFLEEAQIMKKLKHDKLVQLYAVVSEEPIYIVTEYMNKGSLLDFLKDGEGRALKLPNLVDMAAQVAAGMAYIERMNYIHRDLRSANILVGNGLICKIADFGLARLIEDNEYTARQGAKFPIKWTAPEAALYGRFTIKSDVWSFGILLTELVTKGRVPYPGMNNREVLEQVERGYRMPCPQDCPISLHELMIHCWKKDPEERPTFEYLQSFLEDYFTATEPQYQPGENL

SMILES: Cc1cc([C@@H](C)Nc2ccccc2C(=O)O)c2nc(N3CCOCC3)cc(=O)n2c1 [AZD-6482]
% of control [1]: 100% | % of control [2]: 95%

SMILES: COc1cc(Nc2nc(C)cc(-c3cnn4nc(OC)ccc34)n2)cc(C(F)(F)F)c1
IC50 [3]: > 10 µM | % of control [4]: 94%

% of inhibition [5]: -2.18%
SMILES: CC[C@@H]1[C@H](F)C(=O)N[C@@H]1COc1nccc2cc(C(N)=O)c(OC)cc12 [ZIMLOVISERTIB]

% of inhibition [6]: 6%
SMILES: CN1Cc2nccc(-c3cn(C)nc3-c3ccc(F)cc3)c2C1=O

SMILES: Cc1cc(F)c(C(=O)Nc2cccc(-c3nncn3C(C)C)n2)cc1-n1cnc(C2CC2)c1
% of control [7]: 91%

% of control [8]: 100%
SMILES: CCN(CC)CCCCNc1ncc2cc(-c3cc(OC)cc(OC)c3)c(NC(=O)NC(C)(C)C)nc2n1

SMILES: C=CC(=O)Nc1cc(-n2c(=O)ccc3cnc4ccc(-c5ccc(NS(C)(=O)=O)cc5)cc4c32)ccc1C
% of control ([9]; at 1 µM): 69% | % of control ([9]; at 10 µM): 50%

SMILES: CN(C)CCOc1ccc(-c2nc(-c3ccncc3)c(-c3ccc4c(c3)CC/C4=N\O)[nH]2)cc1
% of control [10]: 83% | % of control [11]: 100%
